Experimental data from patent publication US20230295234A1, “ANTIMICROBIAL PEPTIDOMIMETICS” (SPEXIS AG, priority 2020, published 2023).
Peptide text beside a SMILES is read from it.

Columns and labels:
[1] = system: Escherichia coli ATCC 25922; details: ATCC 25922
How it was run: (§1)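 Peptides were made up as 1 mg/mL stocks in sterile water. Colonies in 0.85% saline were set to 0.5 McFarland, then diluted in cation-adjusted Mueller-Hinton II broth to about 5×10^5 CFU/mL. Inoculum was combined with two-fold serial peptide dilutions in water containing 0.002% (final) polysorbate 80.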

[2] = system: Escherichia coli MCR-1 Af 45; details: Mueller-Hinton broth II, 18-20 hours at 35° C.
How it was run: as §1

[3] = system: Klebsiella pneumoniae SSI3010; details: SSI3010
How it was run: as §1

[4] = system: human red blood cells (hRBC); assay: Hemolysis of human red blood cells; type: cell-based; details: red cells of human, 1 h
How it was run: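 Percent hemolysis is OD540 of peptide-treated supernatant relative to water-lysed cells. Each peptide was tested at 200 μg/mL against 20% (v/v) washed human erythrocytes. Incubation was 1 h at 37 °C, 300 rpm.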

Structure (SMILES) | Escherichia coli ATCC 25922 MIC [1] [µg/mL] | Escherichia coli MCR-1 Af 45 MIC [2] [µg/mL] | Klebsiella pneumoniae SSI3010 MIC [3] [µg/mL] | Hemolysis at 0.2 g/L [4] [%]
CC[C@H](C)[C@H](NC(=O)[C@@H]1C[C@@H](O)CN1C(=O)[C@@H](N)C(C)C)C(=O)N[C@H](C(=O)N[C@@H](Cc1c[nH]c2ccccc12)C(=O)N[C@@H]1C(=O)N[C@@H](CC(N)=O)C(=O)N[C@@H](CCCNC(=N)N)C(=O)N[C@@H](CCN)C(=O)N[C@@H]([C@@H](C)O)C(=O)N[C@H](CCN)C(=O)N[C@@H](CCCCN)C(=O)N[C@H](C(=O)N[C@@H](CCN)C(=O)N[C@@H](CCCNC(=N)N)C(=O)N[C@@H](Cc2ccc(O)cc2)C(=O)O)CSSC1(C)C)[C@@H](C)O [Example 160] (HELM PEPTIDE1{V.[Hyp].I.T.W.[Pen].N.R.[Dab].T.[NCC[C@@H](N[*:1])C(=O)[*:2]].K.C.[Dab].R.Y}$PEPTIDE1,PEPTIDE1,6:R3-13:R3$$$V2.0) | 0.25 | 0.25 | 0.5 | 0
CC[C@H](C)[C@H](NC(=O)[C@@H]1C[C@@H](O)CN1C(=O)[C@@H](N)C(C)C)C(=O)N[C@H](C(=O)N[C@@H](Cc1ccc(O)cc1)C(=O)N[C@@H]1C(=O)N[C@@H](C)C(=O)N[C@@H](CCCNC(=N)N)C(=O)N[C@@H](CCN)C(=O)N[C@@H]([C@@H](C)O)C(=O)N[C@H](CCN)C(=O)N[C@@H](CCCCN)C(=O)N[C@H](C(=O)N[C@@H](CCN)C(=O)N[C@@H](CCCNC(=N)N)C(=O)N[C@@H](Cc2ccc(O)cc2)C(=O)O)CSSC1(C)C)[C@@H](C)O [Example 161] (HELM PEPTIDE1{V.[Hyp].I.T.Y.[Pen].A.R.[Dab].T.[NCC[C@@H](N[*:1])C(=O)[*:2]].K.C.[Dab].R.Y}$PEPTIDE1,PEPTIDE1,6:R3-13:R3$$$V2.0) | 0.25 | 0.125 | 0.5 | 0
CC[C@H](C)[C@H](NC(=O)[C@@H]1C[C@@H](O)CN1C(=O)[C@@H](N)C(C)C)C(=O)N[C@H](C(=O)N[C@@H](Cc1ccc(O)cc1)C(=O)N[C@@H]1C(=O)N[C@@H](CC(C)C)C(=O)N[C@@H](CCCNC(=N)N)C(=O)N[C@@H](CCN)C(=O)N[C@@H]([C@@H](C)O)C(=O)N[C@H](CCN)C(=O)N[C@@H](CCCCN)C(=O)N[C@H](C(=O)N[C@@H](CCN)C(=O)N[C@@H](CCCNC(=N)N)C(=O)N[C@@H](Cc2ccc(O)cc2)C(=O)O)CSSC1(C)C)[C@@H](C)O [Example 162] (HELM PEPTIDE1{V.[Hyp].I.T.Y.[Pen].L.R.[Dab].T.[NCC[C@@H](N[*:1])C(=O)[*:2]].K.C.[Dab].R.Y}$PEPTIDE1,PEPTIDE1,6:R3-13:R3$$$V2.0) | 0.25 | 0.125 | 0.25 | 0
CC[C@H](C)[C@@H]1NC(=O)[C@@H](NC(=O)[C@H](Cc2ccc(O)cc2)NC(=O)[C@@H](NC(=O)[C@@H](NC(=O)[C@@H]2C[C@@H](O)CN2C(=O)[C@@H](N)C(C)C)[C@@H](C)CC)[C@@H](C)O)C(C)(C)SSC[C@@H](C(=O)N[C@@H](CCN)C(=O)N[C@@H](CCCNC(=N)N)C(=O)N[C@@H](Cc2ccc(O)cc2)C(=O)O)NC(=O)[C@H](CCCCN)NC(=O)[C@@H](CCN)NC(=O)[C@H]([C@@H](C)O)NC(=O)[C@H](CCN)NC(=O)[C@H](CCCNC(=N)N)NC1=O [Example 163] (HELM PEPTIDE1{V.[Hyp].I.T.Y.[Pen].I.R.[Dab].T.[NCC[C@@H](N[*:1])C(=O)[*:2]].K.C.[Dab].R.Y}$PEPTIDE1,PEPTIDE1,6:R3-13:R3$$$V2.0) | 0.125 | 0.125 | 0.5 | 0
CC[C@H](C)[C@H](NC(=O)[C@@H]1C[C@@H](O)CN1C(=O)[C@@H](N)C(C)C)C(=O)N[C@H](C(=O)N[C@@H](Cc1ccc(O)cc1)C(=O)N[C@@H]1C(=O)N[C@@H](CO)C(=O)N[C@@H](CCCNC(=N)N)C(=O)N[C@@H](CCN)C(=O)N[C@@H]([C@@H](C)O)C(=O)N[C@H](CCN)C(=O)N[C@@H](CCCCN)C(=O)N[C@H](C(=O)N[C@@H](CCN)C(=O)N[C@@H](CCCNC(=N)N)C(=O)N[C@@H](Cc2ccc(O)cc2)C(=O)O)CSSC1(C)C)[C@@H](C)O [Example 164] (HELM PEPTIDE1{V.[Hyp].I.T.Y.[Pen].S.R.[Dab].T.[NCC[C@@H](N[*:1])C(=O)[*:2]].K.C.[Dab].R.Y}$PEPTIDE1,PEPTIDE1,6:R3-13:R3$$$V2.0) | 0.125 | 0.25 | 0.25 | 0
CC[C@H](C)[C@H](NC(=O)[C@@H]1C[C@@H](O)CN1C(=O)[C@@H](N)C(C)C)C(=O)N[C@H](C(=O)N[C@@H](Cc1ccc(O)cc1)C(=O)N[C@@H]1C(=O)N[C@@H]([C@@H](C)O)C(=O)N[C@@H](CCCNC(=N)N)C(=O)N[C@@H](CCN)C(=O)N[C@@H]([C@@H](C)O)C(=O)N[C@H](CCN)C(=O)N[C@@H](CCCCN)C(=O)N[C@H](C(=O)N[C@@H](CCN)C(=O)N[C@@H](CCCNC(=N)N)C(=O)N[C@@H](Cc2ccc(O)cc2)C(=O)O)CSSC1(C)C)[C@@H](C)O [Example 165] (HELM PEPTIDE1{V.[Hyp].I.T.Y.[Pen].T.R.[Dab].T.[NCC[C@@H](N[*:1])C(=O)[*:2]].K.C.[Dab].R.Y}$PEPTIDE1,PEPTIDE1,6:R3-13:R3$$$V2.0) | 0.125 | 0.125 | 0.5 | 0
CC[C@H](C)[C@H](NC(=O)[C@@H]1C[C@@H](O)CN1C(=O)[C@@H](N)C(C)C)C(=O)N[C@H](C(=O)N[C@@H](Cc1ccc(O)cc1)C(=O)N[C@@H]1C(=O)N[C@@H](CCCCN)C(=O)N[C@@H](CCCNC(=N)N)C(=O)N[C@@H](CCN)C(=O)N[C@@H]([C@@H](C)O)C(=O)N[C@H](CCN)C(=O)N[C@@H](CCCCN)C(=O)N[C@H](C(=O)N[C@@H](CCN)C(=O)N[C@@H](CCCNC(=N)N)C(=O)N[C@@H](Cc2ccc(O)cc2)C(=O)O)CSSC1(C)C)[C@@H](C)O [Example 166] (HELM PEPTIDE1{V.[Hyp].I.T.Y.[Pen].K.R.[Dab].T.[NCC[C@@H](N[*:1])C(=O)[*:2]].K.C.[Dab].R.Y}$PEPTIDE1,PEPTIDE1,6:R3-13:R3$$$V2.0) | 0.25 | 0.125 | 0.5 | 0
CC[C@H](C)[C@H](NC(=O)[C@@H]1C[C@@H](O)CN1C(=O)[C@@H](N)C(C)C)C(=O)N[C@H](C(=O)N[C@@H](Cc1ccc(O)cc1)C(=O)N[C@@H]1C(=O)N[C@@H](CC(N)=O)C(=O)N[C@@H](CCCNC(=N)N)C(=O)N[C@@H](CCCCN)C(=O)N[C@@H]([C@@H](C)O)C(=O)N[C@H](CCN)C(=O)N[C@@H](CCCCN)C(=O)N[C@H](C(=O)N[C@@H](CCN)C(=O)N[C@@H](CCCNC(=N)N)C(=O)N[C@@H](Cc2ccc(O)cc2)C(=O)O)CSSC1(C)C)[C@@H](C)O [Example 167] (HELM PEPTIDE1{V.[Hyp].I.T.Y.[Pen].N.R.K.T.[NCC[C@@H](N[*:1])C(=O)[*:2]].K.C.[Dab].R.Y}$PEPTIDE1,PEPTIDE1,6:R3-13:R3$$$V2.0) | 0.25 | 0.125 | 0.5 | 0
CC[C@H](C)[C@H](NC(=O)[C@@H]1C[C@@H](O)CN1C(=O)[C@@H](N)C(C)C)C(=O)N[C@H](C(=O)N[C@@H](Cc1ccc(O)cc1)C(=O)N[C@@H]1C(=O)N[C@@H](CC(N)=O)C(=O)N[C@@H](CCCNC(=N)N)C(=O)N[C@@H](CCCNC(=N)N)C(=O)N[C@@H]([C@@H](C)O)C(=O)N[C@H](CCN)C(=O)N[C@@H](CCCCN)C(=O)N[C@H](C(=O)N[C@@H](CCN)C(=O)N[C@@H](CCCNC(=N)N)C(=O)N[C@@H](Cc2ccc(O)cc2)C(=O)O)CSSC1(C)C)[C@@H](C)O [Example 168] (HELM PEPTIDE1{V.[Hyp].I.T.Y.[Pen].N.R.R.T.[NCC[C@@H](N[*:1])C(=O)[*:2]].K.C.[Dab].R.Y}$PEPTIDE1,PEPTIDE1,6:R3-13:R3$$$V2.0) | 0.125 | 0.5 | 0.25 | 0
CC[C@H](C)[C@@H]1NC(=O)[C@@H](CCN)NC(=O)[C@H]([C@@H](C)O)NC(=O)[C@H](CCN)NC(=O)[C@H](CCCNC(=N)N)NC(=O)[C@H](CC(N)=O)NC(=O)[C@@H](NC(=O)[C@H](Cc2ccc(O)cc2)NC(=O)[C@@H](NC(=O)[C@@H](NC(=O)[C@@H]2C[C@@H](O)CN2C(=O)[C@@H](N)C(C)C)[C@@H](C)CC)[C@@H](C)O)C(C)(C)SSC[C@@H](C(=O)N[C@@H](CCN)C(=O)N[C@@H](CCCNC(=N)N)C(=O)N[C@@H](Cc2ccc(O)cc2)C(=O)O)NC1=O [Example 169] (HELM PEPTIDE1{V.[Hyp].I.T.Y.[Pen].N.R.[Dab].T.[NCC[C@@H](N[*:1])C(=O)[*:2]].I.C.[Dab].R.Y}$PEPTIDE1,PEPTIDE1,6:R3-13:R3$$$V2.0) | 0.5 | 0.25 | 0.5 | 0
